“And” between values parts separate entries of the source, which are not always exact repeats. Identical values can stand only once.
How the values were obtained:
S. aureus = conditions: cited from earlier work
[1] = test system: drug resistant staphylococci including MRSA and MRSE; conditions: cited from earlier work
BpmFabI [2] = type: biochemical, Burkholderia pseudomallei
BpmFabI [3] = type: binding, Burkholderia pseudomallei

Substance: AFN-1252
- MIC50 (S. aureus): 2 to 120 ng/mL
- Activity against drug resistant staphylococci [1]: potent
- Mechanism of inhibition with respect to NADH (Lineweaver-Burk) (BpmFabI [2]): mixed inhibition
- Mechanism of inhibition with respect to crotonyl-CoA (Lineweaver-Burk) (BpmFabI [2]): uncompetitive
- IC50 (BpmFabI [2]; read-out: IC50 for inhibition of BpmFabI): 9.6 nM
- ΔTm (BpmFabI [3]): 12.76 ± 1.26 °C and 11.61 ± 0.10 °C
